This experiment relates to cell clumps in blood. Nature of the experiment: Cell clumping of biological samples (blood) processed through a microfluidic device. The experiment is classed as cell-based. Particulars: DU 2% final working concentration, incubated at room temperature for 30 minutes or overnight, compared with samples without DU (FIGS. 1-4). As to the method: In this experiment, DU was dissolved in PBS to make an 80% (w/v) aqueous concentrated solution. The concentrated solution was then added to biological samples in such a way as to yield a final working concentration of 2%. Biological samples were gently mixed with DU solution to ensure equal distribution of DU, and the resulting mixture was incubated at room temperature for at least 30 minutes.
Samples were then processed according to pre-determined protocols.
FIG. 1 provides an example of samples without being treated with DU and processed through a microfluidic device. The white strands are cell clumps.
FIG. 2 provides an example of samples being treated with DU and processed through a microfluidic device (for this particular experiment, the sample and DU were incubated overnight).
FIG. 3 provides another example of samples without being treated with DU and processed through a microfluidic device.
FIG. 4 provides another example of samples being treated with DU and processed through a microfluidic device (for this particular experiment, the sample and DU were incubated for 30 minutes.

As for `O=C(NCO)N(CO)C1(CO)C(=O)NC(=O)N1CO` (stereo not shown) [DU, diazolidinyl urea], the “reduction of cellular clumping” value is recorded as “great improvement for reducing cellular clumping”.
